Assay results as given in publication PMC8092912 (Antimicrobial Agents and Chemotherapy, 2021).
Where two headings read alike, the source gives them in different places.

Legend:
HIV-1 strain NL4.3 WT = experiment: Drug washout, viral replication (RT activity in culture supernatant) of WT virus in MT-2 cells; type: cell-based; settings: for Time WT viral replication remained inhibited after washout: drug at 20 times IC90, washout 3 days postinfection; for WT viral replication after washout: drug at 20 times IC90, 4 days after washout
Method: (§1) We then washed away the inhibitors 3 days postinfection and quantified the reverse transcriptase activity in the culture supernatant to evaluate viral growth as described on washout days 0, 4, and 8 ([10], [11]). […] Longer experiments would be required to further differentiate BIC and DTG in washout experiments using WT virus.
(§2) Replication was assessed by measuring RT activity in culture supernatant without and after drug washout. Bar graphs, mean ± SEM. Statistical significance of drug washout with drug control conditions were assessed by adjusted P value with Tukey’s test: *, <0.05; ***, <0.001; and ****, <0.0001. For the washout experiments, BIC and EVG were synthesized at Gilead Sciences, Inc., DTG was purchased from Toronto Research Chemicals (ON, Canada), and RAL was provided by Merck, Inc.

[1] = molecular target: T1, G140S+Q148H mutant HIV-1 IN-DNA complexes (Human immunodeficiency virus type 1 group M subtype B, UniProt P04585, G1287S/Q1295H); settings: for Apparent t1/2, G140S+Q148H: 37°C, single exponential decay
Method: (§3) Data sets were analyzed using a single exponential decay equation as previously published for INSTIs ([3]).

[2] = tested on: HIV-1 strain NL4.3 G140S+Q148H; experiment: Drug washout, viral replication (RT activity in culture supernatant) of G140S+Q148H virus in MT-2 cells; type: cell-based; settings: for G140S+Q148H viral replication under constant drug pressure: drug at 20 times IC90, no washout
Method: as §1, §2
The G140S+Q148H mutations cause varied degrees of resistance to INSTIs.

HIV-1 WT = experiment: Antiviral activity against WT HIV-1 in the MT-2 cell line; type: cell-based; settings: Human immunodeficiency virus 1, MT2
Text: TABLE 1 Structure and antiviral activity of INSTIs in the MT-2 cell line | column: Antiviral activity against HIV-1, EC50 (nM)^b (fold change) / WT

HIV-1 G140S+Q148H = experiment: Antiviral activity against G140S+Q148H HIV-1 in the MT-2 cell line; type: cell-based; settings: for EC50: Human immunodeficiency virus 1, MT2; for Fold change of EC50, G140S+Q148H (reduced susceptibility): versus WT
[3] = tested on: G140S+Q148H mutant HIV-1 IN-DNA complexes
Method: as §3

[4] = molecular target: T2, WT HIV-1 IN-DNA complexes (Human immunodeficiency virus type 1 group M subtype B, UniProt P04585)
Method: as §3

[5] = molecular target: T1, G140S+Q148H mutant HIV-1 IN-DNA complexes; settings: values in square brackets; cited from earlier work
[6] = molecular target: T2, WT HIV-1 IN-DNA complexes; settings: cited from earlier work

Row | Structure (SMILES) | Time WT viral replication remained inhibited after washout (HIV-1 strain NL4.3 WT) | Apparent t1/2, G140S+Q148H [1] [h] | G140S+Q148H viral replication under constant drug pressure [2] | EC50 (HIV-1 WT) [nM] | EC50 (HIV-1 G140S+Q148H) [nM] | Apparent t1/2, G140S+Q148H, fold change vs WT [3] [fold] | koff, G140S+Q148H, fold change vs WT [3] [fold] | Apparent t1/2, WT ([4]; 37°C, single exponential decay) [h] | koff, WT ([4]; 37°C, single exponential decay) | Fold change of EC50, G140S+Q148H (reduced susceptibility) (HIV-1 G140S+Q148H) [fold] | Apparent t1/2, G140S+Q148H [5] | koff, G140S+Q148H [5] | WT viral replication after washout (HIV-1 strain NL4.3 WT) | other results
1 | O=C(NCc1c(F)cc(F)cc1F)c1cn2c(c(O)c1=O)C(=O)N1[C@H]3CC[C@H](C3)O[C@@H]1C2 [BIC, bictegravir] | at least 8 days | 5.7 ± 0.4 | very low levels of replication | 1.5 ± 0.2 | 3.1 ± 0.8 |  |  |  |  |  |  |  |  | Suppression of the G140S+Q148H virus after washout ([2]; drug at 20 times IC90, after 8 days of washout): > 80%
2 | O=C(NCc1ccc(F)cc1F)c1cn2c(c(O)c1=O)C(=O)N1[C@H]3CC[C@H](C3)O[C@@H]1C2 [Compound 1] |  | 4.8 ± 0.2 |  | 1.4 ± 0.5 | 4.5 ± 1.8 | 32 | 0.03 | 155 ± 25 | 1.3 ± 0.2 s^−1 (×10^−6) | 3.2 |  |  |  | 
3 | O=C(NCc1c(F)cc(F)cc1F)c1cn2c(c(O)c1=O)C(=O)N1[C@@H]3CC[C@@H](C3)O[C@H]1C2 [Compound 2] |  | 1.7 ± 0.2 |  | 1.5 ± 0.5 | 11.1 ± 0.5 |  |  |  |  |  |  |  |  | 
4 | C[C@@H]1CCO[C@H]2Cn3cc(C(=O)NCc4ccc(F)cc4F)c(=O)c(O)c3C(=O)N12 [DTG, dolutegravir] | at least 8 days | 1.9 ± 0.2 | low replication | 1.5 ± 0.2 | 6.5 ± 1.2 | 51 | 0.02 | 96 ± 29 | 2.2 ± 0.7 s^−1 (×10^−6) | 4.3 | 3.3 h | 58 ± 8 s^−1 (×10^−6) |  | G140S+Q148H viral replication after washout ([2]; drug at 20 times IC90, 4 and 8 days after washout): significant viral replication; Apparent t1/2, WT ([6]; values in square brackets): 71 h; koff, WT ([6]; values in square brackets): 2.7 ± 0.4 s^−1 (×10^−6)
5 | COc1cc2c(cc1Cc1cccc(Cl)c1F)c(=O)c(C(=O)O)cn2[C@H](CO)C(C)C [EVG, elvitegravir] |  |  |  | 2.1 ± 0.9 | 868 ± 138 |  |  |  |  |  |  |  | detectable viral replication | 
6 | Cc1nnc(C(=O)NC(C)(C)c2nc(C(=O)NCc3ccc(F)cc3)c(O)c(=O)n2C)o1 [RAL, raltegravir] |  |  |  | 9.4 ± 1.4 | 2460 |  |  |  |  |  | ND [0.2] h | ND [1,130] s^−1 (×10^−6) | detectable viral replication | Binding to G140S+Q148H IN-DNA complexes for determination of dissociation kinetics [1]: insufficient level of binding; koff, WT [4]: 21 ± 6 [22 ± 2]; Apparent t1/2, WT ([4]; recombinant enzyme): 10 ± 2 [8.8] h; Apparent t1/2, WT [6]: 10 ± 2 [8.8] h; koff, WT [6]: 21 ± 6 [22 ± 2]
